Assay results as given in patent US20240067931A1, “METHODS AND COMPOSITIONS FOR SMALL MOLECULE BASED PANCREATIC BETA CELL INDUCTION” (Trailhead Biosystems Inc., priority 2022, published 2024).
Ends that are not written are not given here.

What was measured:
Assay type in all cases: cell-based, human
HNF1b = experiment: HD-DoE perturbation matrix on iPSC line CR01, optimization of HNF1b activation (MODDE modelling)
Description: (§1) FIG. 2 Optimization of HNF1B from the iPSC-line CR01. A culture of the iPSC cell line Cr01 was exposed to an HD-DoE perturbation matrix composed of compounds regulating the BMP, retinoid, TGF-β and FGF pathways. Pathways previously shown to be involved in the differentiation of dorsal foregut endoderm were utilized in this analysis. MODDE software was used to predict the optimal condition for maximizing HNF1b activation. Predicted factor additives for this optimization and the relative expression under these conditions for the genes measured are shown.
(§2) To assay the efficacy of a potentially clinical grade iPSC line the NCRM1 cell line was chosen. An HD-DoE based optimization was used to validate the HNF1b and FOXA2 optimizers for this cell line. The HD-DOE method was applied with the intent to find conditions for induction of endoderm-expressed genes, directly from the pluripotent stem cell state. This example utilizes a method previously described by Bukys et al. (2020) Iscience 23:101346. The method employs computerized design geometries to simultaneously test multiple process inputs and offers mathematical modeling of a deep effector/response space. The method allows for finding combinatorial signaling inputs that control a complex process, such as dauring cell differentiation. It allows testing of multiple plausible critical process parameters, as such parameters impact output responses, such as gene expression. Because gene expression provides hallmark features of the phenotype of, for example, a human cell, the method can be applied to identify, and understand, which signaling pathways control cell fate.
(§3) To develop a cell culture recipe for each stage, the impact of agonists and antagonists of multiple signaling pathways (herein called effectors) on the expression of pre-selected genes was tested and modeled. The impact of each effector on gene expression level is defined by a parameter called factor contribution that is calculated for each effector during the modeling. These effectors are small molecules or proteins that are commonly used during stepwise differentiation of stem cells to specific fates. Choice of the effectors were based on current literature on differentiation of stem cells to endoderm progenitors.
(§4) In both optimizations, it was shown that BMP pathway inhibition was the most crucial component of the optimization with factor contribution factors of 31.26 and 31.11 for LDN193189 in both the optimization of HNF1b (FIG. 2) and FOXA2 (FIG. 3), respectively. While MEK pathway inhibition with PD0325901 was critical for both HNF1b and FOXA2 optimization (factor contributions of 15.01 and 29.01, respectively), FOXA2 activation was more dependent on MEK inhibition. The other two pathways that were determined to be crucial for controlling DFE activation were retinoid signaling and TGF-β pathway inhibition. These two pathways had differential effects on FOXA2 and HNF1b.

FOXA2 [1] = experiment: HD-DoE perturbation matrix on iPSC line CR01, optimization of FOXA2 activation (MODDE modelling)
Description: as §1, with “FIG. 3” for “FIG. 2”, “of FOXA2” for “of HNF1B”, “foregut endoderm.” for “foregut endoderm were utilized in this analysis.”, “maximizing FOXA2” for “maximizing HNF1b”, “for all” for “for the”
as §2, §3, §4

FOXA2 [2] = experiment: Immunohistochemical staining of iPSC (CR01) cultures after three days in additive combinations; settings: added to RA and LDN, FIG. 9
Description: FIG. 9 Achieving optimal FOXA2 expression. IPSC (CR01) cultures were exposed to media containing different combination of the additive retinoic acid, LDN193189, A8301 and/or PD0325 as indicated on the left side of the stainings. After three days, cultures were fixed and subjected to immunohistochemical staining for the protein antigens of FOXA2 and HNF1b.

INS = experiment: HD-DoE screening for optimal de novo beta cell induction (stage 3 cultures, 3 day perturbation), INS induction
Protocol: FIG. 18 HD-DoE screening for optimal de novo beta cell induction. Culture of the iPSC cell line CR01 were differentiated to a DFE state for 3 days. These cultures were then incubated in the presence of stage 2 media for an additional 3 days. These cultures were then incubated for an additional 5 days in the presence of GSI-XX and A8301 followed by a 3 day incubation in the presence of a perturbation matrix composed of the compounds indicated in the different panels. This was performed 3 separate times (once for each of the 3 panels). These HD-DoE experiments were then analyzed using MODDE software for maximal induction of insulin. The predicted results are shown.
FIG. 20 HD-DoE screening for optimal de novo beta cell induction. Cultures of the iPSC cell line CR01 were differentiated to a DFE state for 3 days. These cultures were then incubated in the presence of stage 2 media for an additional 3 days. These cultures were then incubated for an additional 5 days in the presence of GSI-XX and A8301 followed by a 3 day incubation in the presence of a perturbation matrix composed of the compounds indicated in the different panels. This was performed 4 separate times (once for each of the 4 panels). These HD-DoE experiments were then analyzed using MODDE software for the maximal induction of Insulin. The predicted results are shown.
(§5) FIGS. 22-25. Dynamic profiling of endocrine sub-type regulation. One of the HD-DoE experiments shown in Example 19 was analyzed using MODDE software and dynamic profiling of the endocrine products GCG, SST and INS are shown.
To define factors contributing to the activation of INS, a series of HD-DoE perturbations were performed using factors chosen to target different aspects of beta cell biology.
To define factors contributing to the activation of INS, a series HD-DoE perturbations were performed using factors chosen to target different aspects of beta cell biology.

PDX1 = experiment: HD-DoE perturbation matrix on DFE culture, modelling for maximal PDX1 induction
Description: FIG. 11 Modelling for maximal PDX1 induction. Cultures of the iPSC cell line Cr01 was differentiated to a DFE state and then subjected to an HD-DoE perturbation matrix composed of the compounds indicated in the figure. MODDE software was used to predict the optimal condition for maximizing PDX1 activation. Predicted factor additives for this optimization and the relative expression under these conditions for the genes measured are shown.
FIG. 12 Coefficient plots show main effectors for pancreatic progenitor generation from a DFE precursor. Coefficients for the HD-DoE design shown in Example 9 are shown for PDX1 and PTF1A. The co-expression of these two genes is indicative of a pancreatic field.
To determine the best way for inducing a pancreatic fate from a DFE progenitor, a subsequent HD-DoE analysis was performed. Exposing a DFE culture to a perturbation matrix composed of all previously identified effectors shown to have a positive effect on PDX1 activation was used to define optimal conditions for PDX1 induction.

INS (beta cell marker) = experiment: HD-DoE on DFE culture, dynamic profiling of endocrine sub-type markers: INS; settings: PDX1 optimizer, dynamic profiling FIG. 14
Description: FIG. 14 Dynamic profiling exploring endocrine cell sub-types. IPSC cultures were differentiated to DFE cultures and then subjected a HD-DoE matrix as outlined in Example 10. MODDE software was used to display the dynamic profiles of GCG, INS and SST, which provide a representable characterization of the different pancreatic endocrine subtypes corresponding to alpha, beta, and delta cells, respectively.

[3] = system: GCG, SST, PDX1, PAX4, MAFA and NKX2.2; experiment: HD-DoE stage 3 screening, heat map and dynamic profiling of endocrine and beta cell genes; settings: heat maps FIG. 19 and FIG. 21
Description: FIG. 19 Heat map showing descending factor contributions for the induction of INS. The three HD-DoE experiments shown in Example 17 were used for modeling the maximal expression of several other genes, including GCG, SST, PDX1, PAX4, MAFA and NKX2.2, which are indicative of endocrine cell types with a focus on pancreatic beta cells as indicated at the top of the heat map. The relative factor contributions for the activation of these different genes were then used to generate a secondary heat map representative of the gene induction logic and then ranked according to the compound's ability to induce INS. Dark blue colors indicate a high inductive capacity, while dark red colors indicative of a highly repressive capacity for activation of the genes are shown.
FIG. 21 Heat map showing descending factor contributions for the induction of INS. The four HD-DoE experiments shown in Example 19 were used for modeling the maximal expression of several other genes. These genes were GCG, SST, PDX1, PAX4, MAFA and NKX2.2. These genes are all indicative of endocrine cell types with a focus on the beta cell as indicated at the top of the heatmap. The relative factor contribution for the activation of these different genes were then used to generate a secondary heat map representative of these genes induction logic and then ranked order according to the compounds ability to induce INS. Dark blue indicates high inductive capacity, while dark red is indicative of a highly repressive effect for the activation of the genes shown.
as §5
To ascertain which factors could potentially favor the beta cell over other endocrine cell types, optimizers for markers of the other endocrine cell types and beta cell specific markers were compared. The relative factor contribution from the different optimizers were compared.
Optimizers for the main pancreatic endocrine hormones and beta cell-specific transcription factors were generated to compare their contribution factors for this series of HD-DoE. Compounds that could selectively favor the differentiation of the beta cell over that of the alpha and delta cells were identified in this manner.

de novo beta cells = experiment: Immunohistochemical validation of de novo beta cells, day 16 culture (PDX1, C-peptide); settings: added to stage 3 media, FIG. 26
Protocol: FIG. 26 Immunohistochemical validation of the generation of the de novo beta cells. Cultures of the iPSC cell line CR01 was differentiated to a DFE state for 3 days. These cultures were then incubated in the presence of stage 2 media for an additional 3 days. These cultures were then incubated for an additional 10 days in the presence of quercetin, GSI-XX and A8301. The cultures were then fixed using formalin and stained for antibodies that recognize the proteins PDX1 and CPEP.
C-peptide staining was performed to distinguish between de novo generation of beta cells and the possible absorption of insulin from the culture media.

[4] = system: iPSC derivatives (insulin secreting cells); experiment: GSIS assay of bioreactor produced iPSC derivatives with cAMP agonists; settings: FIG. 39
Protocol: FIG. 39. Functionality of bioreactor produced insulin secreting cells occurs through cAMP agonism.
A glucose stimulated insulin secretion assay was performed to evaluate the functional maturity of the de novo beta cells generated. Assay samples had growth media removed and were washed once with PBS to remove any trace of media that may have been previously conditioned with secreted C-PEP. All samples were then incubated in the presence of basal media at 37 degrees Celsius for 15 minutes. Basal media consisted of RPMI containing 3 mM glucose. This media was then changed to either media supplemented with 17.5 mM glucose or 30 mM KCl and incubated for an additional 15 minutes.
Fully mature beta cells respond to incretins such as GLP1 through a cAMP mediated response. The iPSC derivatives are non-responsive to both GLP1 or a commonly used agonist of the GLP1 pathway EX4. It was shown that the receptor for these incretins (GLPR1) had very low expression in the iPSC-derivatives (FIG. 40). The rate of insulin secretion was also directly linked to the rate of mitochondrial respiration, as fully mature beta cells lack LDHA expression, making them only capable of metabolizing glucose through mitochondria respiration.

Cc1cccc(-c2nn(C(=S)Nc3ccccc3)cc2-c2ccnc3ccccc23)n1 [A8301]
correlation with HNF1b activation (HNF1b; iPSC line CR01, HD-DoE, FIG. 2): negative correlation
factor contribution, optimization of HNF1b (HNF1b; iPSC line CR01, HD-DoE, FIG. 2): 3.02
correlation with FOXA2 activation (FOXA2 [1]; iPSC line CR01, HD-DoE, FIG. 3): positive correlation
factor contribution, optimization of FOXA2 (FOXA2 [1]; iPSC line CR01, HD-DoE, FIG. 3): 17.72
FOXA2 activation (immunohistochemical analysis) (FOXA2 [2]): increased FOXA2 activation over RA and LDN alone
effect on INS induction (INS; heat map FIG. 21, dynamic profiling FIGS. 22-25): positive effect on INS induction, though with far less contribution

c1ccc2c(-c3cnn4cc(-c5ccc(N6CCNCC6)cc5)cnc34)ccnc2c1 [LDN193189]
effect on HNF1b expression (HNF1b; dynamic profiling, FIG. 5): crucial
factor contribution, optimization of HNF1b (HNF1b; iPSC line CR01, HD-DoE, FIG. 2): 31.26
effect on FOXA2 expression (FOXA2 [1]; dynamic profiling, FIG. 5): crucial
factor contribution, optimization of FOXA2 (FOXA2 [1]; iPSC line CR01, HD-DoE, FIG. 3): 31.11

O=C(NOC[C@H](O)CO)c1ccc(F)c(F)c1Nc1ccc(I)cc1F [PD0325901]
factor contribution, optimization of HNF1b (HNF1b; iPSC line CR01, HD-DoE, FIG. 2): 15.01
factor contribution, optimization of FOXA2 (FOXA2 [1]; iPSC line CR01, HD-DoE, FIG. 3): 29.01
FOXA2 activation (immunohistochemical analysis) (FOXA2 [2]): increased FOXA2 activation over RA and LDN alone
activation of the pancreatic field (PTF1A and PDX1), coefficient plots (PDX1; from DFE, FIG. 12): most critical to control

Cc1c(C)c(NCC(=O)N(C)C2CCN(Cc3ccc(C(N)=O)cc3)CC2)c(C)c(C)c1N [SUN11602]
factor contribution, PDX1 activation (PDX1; DFE culture, HD-DoE, FIG. 11): 4.7
effect on INS activation (INS (beta cell marker)): slightly negative effect

O=c1c(O)c(-c2ccc(O)c(O)c2)oc2cc(O)cc(O)c12 [quercetin]
contribution factor, activation of INS (INS; Example 17, three HD-DoE panels, FIG. 18): 15.6
effect on beta cell specific transcription factors / all genes optimized [3]: beneficial for all genes optimized
endocrine conversion, de novo beta cell generation (immunohistochemical analysis) (de novo beta cells): increased overall endocrine conversion

GLP1: incretin, cAMP agonist (HAEGTFTSDVSSYLEGQAAKEFIAWLVKGR; ends and bridges not checked; UniProt P01275 98-127, looked up)
increase in insulin secretion in GSIS assay [4]: did not occur
